Source: patent US12247972B2 (priority 2018, dated 2025)

How the values were obtained:
[1] = test system: NG108-15 cells (endogenous glutamate receptor); test: Intracellular potential recording of cultured nerve cells with C-M magnet electrode (glutamate response); format: cell-based; conditions: final external fluid concentration 800 μM
Method: NG108-15 cells were used for the purpose of showing that recording is possible from cultured nerve cells. NG108-15 cells (neuroblastoma-glioma hybrid cells) were cultured in a culture medium containing DMEM (Sigma-Aldrich), HAT supplement (Thermofisher) and 10% FBS (Biowest). NG108-15 was seeded on a cover glass that was coated with 0.1% Polyethyleneimine (pH8.4, 150 mM Sodium Tetra-Borate (Wako)), and cultured in the culture medium, in which FBS concentration was reduced to 5% from the above culture medium, and the nerve differentiation was induced by adding 500 μM Ibuprofen (Wako). […]
PEI and PEG-gold coated magnetic nanoparticles were mixed and left at room temperature for 3 hours. This mixed solution is moved to the cell-adhesive surface of the neodymium magnet and left for additional 15 minutes to magnetically bond the gold nanoparticles to the neodymium magnet electrode.
The above nanoparticle-bonding magnet electrode was placed on the cultured cells placed on an iron plate. […]
In addition to the spontaneous action potential, the following experiment was conducted to confirm whether the neuronal activity by the neurotransmitter glutamate can be recorded. […] Glutamic acid was administered to the extracellular fluid (final external fluid concentration 800 μM), and the response mediated by glutamate receptors was recorded. […]

[2] = test system: NG108-15 cells; test: Intracellular potential recording in differentiated cultured nerve cells with MagEle not isolated from external fluid; format: cell-based; conditions: 3 mM; after 20 μM Veratridine
Method: In this experiment, the cultured nerve cells (NG108-15 cells) used in Example 3 were induced and differentiated into nerves under the same differentiation conditions as in the experiment example 3. In the same manner as in Example 3, the MagEle (magnet electrode) is moved from above the target cell toward the cell, and the conductive gold-coated magnetic nanoparticles adsorbed on the MagEle are adhered to the cell membrane to penetrate it. Then, the intracellular potential was measured by connecting the MagEle to the (+) pole and a conductor provided on an insulator (parafilm film) that completely covers the upper surface of the MagEle to the ground. At that time, although the insulator completely covered the top and sides of the (+) pole MagEle, the surface facing the cover glass, to which the cells adhere was not covered, and the cells were not isolated from the external fluid (FIG. 19).
The NG108-15 cells were differentiated by culturing for 3 weeks in DMEM/HAT medium containing 2% FBS supplemented with Forskolin (10 μM).

SMILES | time for glutamate-induced membrane potential change to return to baseline ([1]; decay due to desensitization) | membrane potential response mediated by glutamate receptors ([1]; neural differentiation induction for 2 days) | spontaneous action potential induced by Veratridine [2]
N[C@@H](CCC(=O)O)C(=O)O [Glutamate, Glutamic acid] | about 90 seconds | depolarization (upward change) response of the membrane potential | 
CCN(CC)CC(=O)Nc1c(C)cccc1C [Lidocaine] |  |  | suppressed
